Measured values from US11634425B2, “Pharmaceutical compounds” (priority 2019, dated 2023).
Where two headings read alike, the source gives them in different places.

Legend:
RSV A2 = test: RSV plaque reduction assay; assay type: cell-based, respiratory syncytial virus (RSV); conditions: human respiratory syncytial virus, HepG2, Hep-G2 cells, mean of at least two experiments
Method in brief: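 EC50 is the 50% reduction in immunostained plaque count versus virus-control wells, interpolated from variable-slope 4-parameter fits and averaged over at least two runs. Hep-G2 cells were infected with 100 PFU/well RSV A2 premixed with compound, with the inoculum removed after 2 h. Incubation continued at 37 °C for 2 days under a CMC overlay with compound.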

in vitro [1] = assay type: in vitro ADME; conditions: hepatocytes, 3 μM compound, read-out: Liver Hepatocyte Stability t1/2
Description: Compounds were subjected to the following assays to investigate liver microsomal stability and hepatocyte stability.
Hepatocyte Incubation: Experimental Procedure
Cryopreserved pooled hepatocytes were purchased from a reputable commercial supplier and stored in liquid nitrogen prior to use. Williams E media supplemented with 2 mM L-glutamine and 25 mM HEPES and test compound (final substrate concentration 3 μM; final DMSO concentration 0.25%) are pre-incubated at 37° C. prior to the addition of a suspension of cryopreserved hepatocytes (final cell density 0.5×10^6 viable cells/mL in Williams E media supplemented with 2 mM L-glutamine and 25 mM HEPES) to initiate the reaction. The final incubation volume is 500 μL. Two control compounds were included with each species, alongside appropriate vehicle control. The reactions are stopped by transferring 50 μL of incubate to 100 μL acetonitrile containing internal standard at the appropriate time points. Samples were removed at 6 time points (0, 5, 15, 30, 45 and 60 min) over the course of a 60 min experiment. The termination plates are centrifuged at 2500 rpm at 4° C. for 30 min to precipitate the protein. Following protein precipitation, the sample supernatants were combined in cassettes of up to 4 compounds and analysed using generic LC-MS/MS conditions. From a plot of ln peak area ratio (compound peak area/internal standard peak area) against time, the gradient of the line is determined. Subsequently, half-life (t1/2) and intrinsic clearance (CLint) were calculated.

in vitro [2] = assay type: in vitro ADME; conditions: microsomes, pH 7.4, 1 μM compound, 0.5 mg/mL protein, read-out: Liver Microsomal Stability t1/2
Method in brief: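 Pooled liver microsomes (0.5 mg/mL protein) in 0.1 M phosphate pH 7.4 with 1 μM compound and 1 mM NADPH at 37° C., sampled at 0–45 min; minus-NADPH control at 45 min. Acetonitrile quench, LC-MS/MS; t1/2 and CLint from ln peak-area ratio vs time slope.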

Cell cytotoxicity (CC50) = assay type: cell-based; conditions: human; mean of at least two experiments
Method in brief: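 Values are means of ≥2 independent runs, rounded to whole units, from 4-parameter variable-slope curve fits. Toxicity measured in Hep-G2 cells run alongside RSV plaque-reduction assays.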

in vivo = assay type: in vivo, rat (Sprague Dawley); conditions: male SD rat
Description: The pharmacokinetics of compounds were studied in vivo in rats at doses of 1 mg/kg (IV) and 10 mg/kg (PO).
Male rats [Sprague Dawley (SD)] surgically prepared with a jugular vein cannula were treated with experimental compounds via intravenous administration (IV; n=3; 1 mg/kg) or oral administration (PO; n=3; 10 mg/kg). Compounds were formulated as a solution in 40:60 dimethylacetamide:saline (IV administration) and a solution of 10% DMSO, 20% cremaphor in water (70%) (PO administration). […] Serial blood samples were collected via the cannula at 0.02, 0.08, 0.25, 0.5, 1, 2, 4, 6, 8 and 24 h post IV dosing of compound, and at 0.08, 0.25, 0.5, 1, 2, 4, 6, 8 and 24 h post oral dosing of compound, and plasma was prepared by centrifugation and stored immediately at −80° C. Samples were subsequently thawed, prepared for analysis by protein precipitation with acetonitrile, and analysed by tandem LCMS using electrospray ionisation using a matrix-matched calibration curve. PK parameters were calculated from the resulting data.

[3] = Sprague Dawley, in vivo, IV 1 mg/kg

SMILES | EC50 (RSV A2) | half-life at 3 μM (in vitro [1]; dog) | half-life at 3 μM (in vitro [1]; human) | half-life at 3 μM (in vitro [1]; rat) | half-life at 1 μM (in vitro [2]; dog) | half-life at 1 μM (in vitro [2]; human) | half-life at 1 μM (in vitro [2]; rat) | CC50 (Cell cytotoxicity (CC50)) | Vd (in vivo; [3]) | clearance (in vivo; [3]) | Cmax (in vivo; Sprague Dawley, in vivo, IV 1 mg/kg / PO 10 mg/kg study) | half-life (in vivo; Sprague Dawley, in vivo, IV 1 mg/kg, read-out: IV t1/2 (converted)) | AUC(0-t) (in vivo; Sprague Dawley, in vivo, PO 10 mg/kg, read-out: PO AUClast) | half-life (in vivo; Sprague Dawley, in vivo, PO 10 mg/kg, read-out: PO t1/2 (converted)) | C 8 h (in vivo; 8 h, IV 1 mg/kg / PO 10 mg/kg study) | F (in vivo; IV 1 mg/kg, PO 10 mg/kg)
O=C(N[C@H]1N=C(c2ccccc2)c2cccc(F)c2NC1=O)c1c(-c2ccccc2F)nn2cccnc12 [Example 3, N-[(3S)-9-fluoro-2-oxo-5-phenyl-1,3-dihydro-1,4-benzodiazepin-3-yl]-2-(2-fluorophenyl)pyrazolo[1,5-a]pyrimidine-3-carboxamide] | 90 nM | > 3.1 h | 4.28 h | 1.36 h | > 2.33 h | 5.5 h | > 2.33 h | > 25000 nM |  |  |  |  |  |  |  | 
O=C(N[C@H]1N=C(c2ccccc2)c2cccc(F)c2NC1=O)c1c(-c2ccccc2F)nc2cccnn12 [Example 18, N-[(3S)-9-fluoro-2-oxo-5-phenyl-1,3-dihydro-1,4-benzodiazepin-3-yl]-2-(2-fluorophenyl)imidazo[1,2-b]pyridazine-3-carboxamide] | 28 nM | 2.12 h | 11.6 h | 1.11 h | 6.9 h | 12.3 h | 0.838 h | > 25000 nM |  |  |  |  |  |  |  | 
Cc1ccc2nc(-c3ccccc3F)c(C(=O)N[C@H]3N=C(c4ccccc4)c4cccc(F)c4NC3=O)n2n1 [Example 19, N-[(3S)-9-fluoro-2-oxo-5-phenyl-1,3-dihydro-1,4-benzodiazepin-3-yl]-2-(2-fluorophenyl)-6-methylimidazo[1,2-b]pyridazine-3-carboxamide] | 31 nM | > 3.1 h | 2.02 h | 1.6 h | > 2.33 h | > 2.33 h | 0.477 h | > 25000 nM |  |  |  |  |  |  |  | 
Cc1ccn2nc(-c3ccccc3F)c(C(=O)N[C@H]3N=C(c4ccccc4)c4cccc(F)c4NC3=O)c2n1 [Example 23, N-[(3S)-9-Fluoro-2-oxo-5-phenyl-1,3-dihydro-1,4-benzodiazepin-3-yl]-2-(2-fluorophenyl)-5-methylpyrazolo[1,5-a]pyrimidine-3-carboxamide] | 21 nM | 3.57 h | 8.65 h | 1.18 h | 15 h | 6.65 h | 0.555 h | > 25000 nM |  |  |  |  |  |  |  | 
O=C(N[C@H]1N=C(c2ccccc2)c2cccc(F)c2NC1=O)c1c(-c2cncc(Cl)c2)nn2cccnc12 [Example 28, 2-(5-Chloropyridin-3-yl)-N-[(3S)-9-fluoro-2-oxo-5-phenyl-1,3-dihydro-1,4-benzodiazepin-3-yl]pyrazolo[1,5-a]pyrimidine-3-carboxamide] | 41 nM | 4 h | 3.23 h | > 3.1 h | 4.28 h | 14.2 h | 44.7 h | > 25000 nM | 1.8 L/kg | 7.8 mL/min/kg | 785 ng/mL | 3.1 h | 11100 ng·h/mL | 5.4 h | 629 ng/mL | 54%
Cc1ccc2nc(-c3ccccc3)c(C(=O)N[C@H]3N=C(c4ccccc4)c4cccc(F)c4NC3=O)n2n1 [Example 93, N-[(3S)-9-Fluoro-2-oxo-5-phenyl-1,3-dihydro-1,4-benzodiazepin-3-yl]-6-methyl-2-phenylimidazo[1,2-b]pyridazine-3-carboxamide] | 33 nM | 7.42 h | 4.9 h | 1.19 h | 23.7 h | 34.8 h | 0.685 h | > 25000 nM |  |  |  |  |  |  |  | 
CN1CC(Oc2ccc3nc(-c4ccccc4)c(C(=O)N[C@H]4N=C(c5ccccc5)c5cccc(F)c5NC4=O)n3n2)C1 [Example 109, N-[(3S)-9-Fluoro-2-oxo-5-phenyl-1,3-dihydro-1,4-benzodiazepin-3-yl]-6-(1-methylazetidin-3-yl)oxy-2-phenylimidazo[1,2-b]pyridazine-3-carboxamide] | 96 nM |  |  |  | 4.33 h | 1.3 h | 1.15 h | > 16800 nM |  |  |  |  |  |  |  | 
COc1ccc2nc(-c3ccccc3)c(C(=O)N[C@H]3N=C(c4ccccc4)c4cccc(F)c4NC3=O)n2n1 [Example 113, N-[(3S)-9-fluoro-2-oxo-5-phenyl-1,3-dihydro-1,4-benzodiazepin-3-yl]-6-methoxy-2-phenylimidazo[1,2-b]pyridazine-3-carboxamide] | 41 nM |  |  |  | 4.02 h | 8.63 h | 1.46 h | > 25000 nM |  |  |  |  |  |  |  | 
[2H]C([2H])([2H])Oc1ccc2nc(-c3ccccc3)c(C(=O)N[C@H]3N=C(c4ccccc4)c4cccc(F)c4NC3=O)n2n1 [Example 114, N-[(3S)-9-fluoro-2-oxo-5-phenyl-1,3-dihydro-1,4-benzodiazepin-3-yl]-2-phenyl-6-(trideuteriomethoxy)imidazo[1,2-b]pyridazine-3-carboxamide] | 39 nM |  |  |  | 5.5 h | 4.1 h | 2.03 h | > 25000 nM |  |  |  |  |  |  |  | 
COc1ccc2nc(-c3ccccc3F)c(C(=O)N[C@H]3N=C(c4ccccc4)c4cccc(F)c4NC3=O)n2n1 [Example 115, N-[(3S)-9-fluoro-2-oxo-5-phenyl-1,3-dihydro-1,4-benzodiazepin-3-yl]-2-(2-fluorophenyl)-6-methoxyimidazo[1,2-b]pyridazine-3-carboxamide] | 34 nM |  |  |  | 7.78 h | 2.5 h | 2.42 h | > 25000 nM |  |  |  |  |  |  |  | 
O=C(N[C@H]1N=C(c2ccccc2)c2cccc(F)c2NC1=O)c1c(-c2ccccc2F)nc2ccc(Cl)nn12 [Example 116, 6-Chloro-N-[(3S)-9-fluoro-2-oxo-5-phenyl-1,3-dihydro-1,4-benzodiazepin-3-yl]-2-(2-fluorophenyl)imidazo[1,2-b]pyridazine-3-carboxamide] | 33 nM |  |  |  | > 2.33 h | > 2.33 h | 0.957 h | > 25000 nM |  |  |  |  |  |  |  | 
COc1ccc2nc(-c3cncc(C)c3)c(C(=O)N[C@H]3N=C(c4ccccc4)c4cccc(F)c4NC3=O)n2n1 [Example 118, N-[(3S)-9-fluoro-2-oxo-5-phenyl-1,3-dihydro-1,4-benzodiazepin-3-yl]-6-methoxy-2-(5-methylpyridin-3-yl)imidazo[1,2-b]pyridazine-3-carboxamide] | 59 nM |  |  |  | 2.38 h | 1.98 h | 0.808 h | > 25000 nM |  |  |  |  |  |  |  | 
COc1ccc2nc(-c3ccncc3F)c(C(=O)N[C@H]3N=C(c4ccccc4)c4cccc(F)c4NC3=O)n2n1 [Example 119, N-[(3S)-9-fluoro-2-oxo-5-phenyl-1,3-dihydro-1,4-benzodiazepin-3-yl]-2-(3-fluoropyridin-4-yl)-6-methoxyimidazo[1,2-b]pyridazine-3-carboxamide] | 28 nM | 4.92 h | > 3.1 h | 1.97 h | 7.4 h | 2.68 h | 0.863 h | > 25000 nM |  |  |  |  |  |  |  | 
